According to the supplement of paper PMC10307832:

Compound: CN(c1ncccc1CNc1nc(Nc2ccc3c(c2)CC(=O)N3)ncc1C(F)(F)F)S(C)(=O)=O + CC(=O)Nc1cccc(-n2c(=O)n(C3CC3)c(=O)c3c(Nc4ccc(I)cc4F)n(C)c(=O)c(C)c32)c1 [Trametinib] (partner 0.02 µM)
Assay: relative viability (nuclei count vs DMSO), 5 days (fraction); higher = more cells survive
Outline: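 Dosing by pin tool came one day after lung cancer cell lines were seeded in 1536-well plates, using either one drug or a fixed anchor-drug dose plus five library-drug doses (not always all listed) in √10 steps. After 5 days, nuclei were counted on 4× images. Relative viability is treated-well nuclei count divided by vehicle-well nuclei count, and values are medians of duplicate plates.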

| Cell Line | relative viability (first compound 0.01 µM) | relative viability (first compound 0.03162 µM) | relative viability (first compound 0.1 µM) | relative viability (first compound 0.3162 µM) | relative viability (first compound 1 µM) |
| --- | --- | --- | --- | --- | --- |
| 201T | 0.709 | 0.712 | 0.664 | 0.669 | 0.67 |
| A-427 | 0.722 | 0.791 | 0.67 | 0.821 | 0.741 |
| BEN | 0.954 | 1.19 | 0.92 | 1.02 | 0.869 |
| CAL-12T | 0.363 | 0.304 | 0.32 | 0.358 | 0.357 |
| COR-L23 | 0.563 | 0.66 | 0.57 | 0.605 | 0.516 |
| COR-L 105 | 0.459 | 0.419 | 0.453 | 0.479 | 0.445 |
| ChaGo-K-1 | 0.959 | 0.923 | 0.999 | 0.912 | 0.849 |
| EKVX | 0.355 | 0.374 | 0.244 | 0.319 | 0.262 |
| EMC-BAC-2 | 0.872 | 0.887 | 0.855 | 0.841 | 0.722 |
| EPLC-272H | 0.288 | 0.294 | 0.247 | 0.319 | 0.277 |
| H3255 | 0.688 | 0.675 | 0.549 | 0.601 | 0.576 |
| HARA | 0.816 | 0.63 | 0.439 | 0.63 | 0.723 |
| HCC-15 | 0.344 | 0.378 | 0.35 | 0.35 | 0.336 |
| HCC-44 | 1.02 | 1.05 | 0.959 | 1.09 | 1.12 |
| HCC-78 | 0.681 | 0.864 | 0.753 | 0.641 | 0.507 |
| HCC-366 | 0.41 | 0.398 | 0.296 | 0.303 | 0.308 |
| HCC-827 | 0.574 | 0.517 | 0.496 | 0.56 | 0.495 |
| HOP-62 | 0.353 | 0.438 | 0.379 | 0.332 | 0.306 |

| Cell Line | relative viability (first compound 0.01 µM) | relative viability (first compound 0.03162 µM) | relative viability (first compound 0.1 µM) | relative viability (first compound 0.3162 µM) | relative viability (first compound 1 µM) |
| --- | --- | --- | --- | --- | --- |
| LC-2-ad | 0.876 | 0.932 | 0.926 | 0.905 | 0.793 |
| LCLC-97TM1 | 0.207 | 0.189 | 0.184 | 0.206 | 0.124 |
| LCLC-103H | 0.674 | 0.687 | 0.675 | 0.704 | 0.673 |
| LK-2 | 0.897 | 0.973 | 0.679 | 0.73 | 0.601 |
| LOU-NH91 | 0.802 | 0.793 | 0.75 | 0.819 | 0.787 |
| LU99A | 0.559 | 0.663 | 0.564 | 0.65 | 0.574 |
| LXF-289 | 0.706 | 0.693 | 0.648 | 0.664 | 0.633 |
| NCI-H23 | 0.392 | 0.319 | 0.388 | 0.466 | 0.404 |
| NCI-H322M | 0.432 | 0.518 | 0.522 | 0.479 | 0.51 |
| NCI-H358 | 0.12 | 0.125 | 0.108 | 0.126 | 0.0973 |
| NCI-H441 | 0.457 | 0.461 | 0.402 | 0.336 | 0.403 |
| NCI-H460 | 0.108 | 0.139 | 0.2 | 0.185 | 0.129 |
| NCI-H520 | 0.714 | 0.666 | 0.646 | 0.7 | 0.705 |
| NCI-H596 | 0.932 | 0.779 | 0.559 | 0.781 | 0.728 |
| NCI-H647 | 0.582 | 0.594 | 0.459 | 0.463 | 0.414 |
| NCI-H650 | 1.02 | 1.01 | 0.994 | 1.02 | 0.88 |
| NCI-H661 | 0.549 | 0.729 | 0.577 | 0.615 | 0.608 |
